The Ki is the equilibrium dissociation constant of an inhibitor or competing ligand from its target. A higher Ki goes with weaker binding. A word on the IC50: it is the concentration that inhibits the measured activity by half.

The structures appear in SMILES notation.

Test [1] concerns the target T1, PTP1B (Homo sapiens, UniProt P18031).
T1 construct: human recombinant PTP1B (1–302)
T1 sequence (P18031 1-302): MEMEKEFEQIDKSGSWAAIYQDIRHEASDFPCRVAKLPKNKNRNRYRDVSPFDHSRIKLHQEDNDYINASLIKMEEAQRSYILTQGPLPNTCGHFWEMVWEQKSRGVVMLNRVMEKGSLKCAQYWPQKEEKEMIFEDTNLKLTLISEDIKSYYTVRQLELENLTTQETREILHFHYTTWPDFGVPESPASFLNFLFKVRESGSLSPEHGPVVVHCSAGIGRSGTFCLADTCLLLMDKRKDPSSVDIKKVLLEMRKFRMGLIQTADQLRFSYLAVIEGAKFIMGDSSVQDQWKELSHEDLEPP
Nature of the test: Dilution (reversibility) assay with PTP1B. It counts as biochemical. The conditions noted are these: 50 µM, 1 h at 37 °C, then diluted 500 fold. As for the experimental part: A dilution test was carried out to evaluate if the compound behaves as reversible or irreversible inhibitor of PTP1B. Briefly, an aliquot of the enzyme was diluted with different concentration of inhibitor and the samples incubated at 37 °C for 1 h. After this time, an aliquot of these samples was diluted 500 times in the assay buffer containing 2.5 mM p-NPP, to evaluate whether the enzyme is able to recover its activity since the final concentration of inhibitor is now far away from its IC50 value. Control test was carried out diluting the enzyme with an equal volume of deionised water. All tests were performed in triplicate.
Figure 4 Dilution assay. To evaluate the mechanism of action of the compounds, a reversibility assay was carried out. The PTP1B was incubated in the presence of the saturating concentration of each compound (50 µM) for 1 h at 37 °C. Then, an aliquot of enzyme was diluted 500 folds in the assay buffer to evaluate the residual activity of the enzyme. Tests were carried out in triplicate. Data represent the mean value ± SD.

The target in test [2] is T1, PTP1B. Nature of the test: Determination of the mechanism of inhibition on PTP1B (KM, Vmax, Lineweaver-Burk, secondary plots). In kind it is biochemical. The conditions noted are these: for α: Ki′ = αKi; for Ki′: from 1/Vmax versus inhibitor concentration (Ki′ = αKi); for Ki: from KM/Vmax versus inhibitor concentration. Here is the method: The inhibitory mechanism of tested compounds was determined studying the dependence between the main kinetics parameters (KM and Vmax) and the inhibitors concentrations. Briefly, KM and Vmax values were calculated measuring the hydrolysis rate of PTP1B in the absence/presence of different inhibitor concentrations, while increasing substrate content. Data obtained were fitted using Michaelis-Menten equation and a non-linear fitting software. Then, data were analysed using the double reciprocal plot (Lineweaver-Burk method).
Figure 5 Kinetic characterization of 3 as PTP1B inhibitor. […] Dependence of main kinetic parameters KM (A) and Vmax (B) from the concentration of compound 3. Lineweaver-Burk plot (C). Bars represent the standard deviations of the means from at least three independent measurements (if not present, they are within the symbol’s size). […] E, free enzyme; S, substrate; ES, enzyme-substrate complex; EI, enzyme-inhibitor complex; ESI the enzyme-substrate-inhibitory ternary complex; Ks, dissociation constant of the enzyme-substrate complex; Ki, dissociation constant of EI complex; αKs and αKi, dissociation constant of enzyme-substrate-inhibitor complex (α > 1).
Figure 6 Secondary plots. KM/Vmax (A) and 1/Vmax (B) versus the inhibitor concentration, respectively. The intercept of straight line with the “x” axis in Panel A, represents the Ki value, while the intercept of straight line with the “x” axis in Panel B represents the Ki′ value (Ki′ = αKi).
Figure 7 Kinetic characterization of 8a as PTP1B inhibitor. […] Dependence of KM (A) and Vmax (B) from the inhibitor concentration. Lineweaver-Burk graph (C). Bars represent the standard deviations of the means from at least three independent measurements (if not present, they are within the symbol’s size). Secondary plots: KM/Vmax (D) and 1/Vmax (E) versus the inhibitor concentration, respectively. The intercept of straight line with the “x” axis in Figure D represents the Ki value, while the intercept of straight line with the “x” axis in Figure E represents the Ki′ value (Ki′ = αKi).

The subject of another test is GST–PTP1B fusion protein. Further details: method as in PMID 27064611. The settings on record: different pH value, read-out: IC50 on PTP1B previously determined; cited from earlier work.
A further test relates to C2C12 cells. The test can be described thus: Glucose uptake assay (2-NBDG, flow cytometry). In kind it is cell-based, murine. The conditions noted are these: 20 µM compound alone, 30 min, then 2-NBDG 3 h. As for the experimental part:
To evaluate glucose uptake, C2C12 cells were grown until 80% confluence and then incubated in starvation medium for 24 h. After this time, cells were stimulated with 10 nM insulin (Humalog Lispro, Eli Lilly), 20 µM compound 3 or 3-insulin combination for 30 min and then incubated in the presence of 40 µM of 2-NBDG (Invitrogen) for 3 h. Then, cells were washed with PBS, tripsinized, pelleted by centrifugation (1000× g for 5 min), then suspended in 500 µL of PBS. The amount of 2-NBDG uploaded by cells was determined analysing cells by using a flow cytometer apparatus (FACSCanto II, BD Biosciences, San Jose, CA, USA). For each sample 1 × 10^4 events were acquired. Data obtained were then analysed with FlowJo software. Cells autofluorescence values were determined before sample analysis and subtracted to each sample.
Figure 13 Glucose uptake assay. C2C12 cells were treated with 10 nM insulin, 20 µM compound 3 or 3-insulin combination and then incubated in the presence of 2-NBDG for 3 h. After that, the glucose uptake was analysed by flow cytometry analysis. Each test was carried out in quadruplicate. For each test, 10,000 events at least were analysed. (A), quantification of the mean fluorescence values of C2C12 cells. Data represents the mean value ± SD (n = 4). […] (B), representative cell fluorescence distribution obtained by analysing data with the FlowJo software. […]
(In general: In flow cytometry, cells or beads pass a laser one at a time.)

Consider `CCCCC[C@@H](OP(=O)(O)O)[C@@H](O)CC[C@H](CCCC)OC(C)=O` (relative stereo) [Compound 8a], for which the “Reversibility of PTP1B inhibition” value on PTP1B [1] was “reversible inhibitors”. For the same molecule, at PTP1B [2], the “Inhibitory mechanism on PTP1B” value is reported as “mixed type inhibitor”, the α is recorded as 1.6 ± 0.1, the “Ki′” value came to 5.4 ± 0.2 µM and the affinity corresponds to a Ki of 3.3 ± 0.4 µM.

As to `CCCCCCCCCCCCCCC(OP(=O)(O)O)C(O)CCCO` (stereo not drawn) [Compound 3], the “Reversibility of PTP1B inhibition” value at PTP1B [1] is “reversible inhibitors”. On PTP1B [2], the “Inhibitory mechanism on PTP1B” value is listed as “linear mixed-type inhibitor”, the α is 1.4 ± 0.2, the “Ki′” value was found to be 9.4 ± 0.6 µM and the Ki came out at 6.6 ± 0.8 µM. In the test on GST–PTP1B fusion protein, the 50% inhibitory concentration (IC50) is 24 ± 7 µM. The “Glucose uptake (2-NBDG)” value in the test with C2C12 cells is reported as “incorporated more glucose than insulin-stimulated C2C12 cells”.

(Values after article PMC8950868, “Identifying Human PTP1B Enzyme Inhibitors from Marine Natural Products: Perspectives for Developing of Novel Insulin-Mimetic Drugs” (Pharmaceuticals, 2022).)
